Source: PMC11220827 (Frontiers in Pharmacology, 2024)

Molecular target: T1, TRβ (Homo sapiens, UniProt P10828)
T1 sequence (P10828 1-461): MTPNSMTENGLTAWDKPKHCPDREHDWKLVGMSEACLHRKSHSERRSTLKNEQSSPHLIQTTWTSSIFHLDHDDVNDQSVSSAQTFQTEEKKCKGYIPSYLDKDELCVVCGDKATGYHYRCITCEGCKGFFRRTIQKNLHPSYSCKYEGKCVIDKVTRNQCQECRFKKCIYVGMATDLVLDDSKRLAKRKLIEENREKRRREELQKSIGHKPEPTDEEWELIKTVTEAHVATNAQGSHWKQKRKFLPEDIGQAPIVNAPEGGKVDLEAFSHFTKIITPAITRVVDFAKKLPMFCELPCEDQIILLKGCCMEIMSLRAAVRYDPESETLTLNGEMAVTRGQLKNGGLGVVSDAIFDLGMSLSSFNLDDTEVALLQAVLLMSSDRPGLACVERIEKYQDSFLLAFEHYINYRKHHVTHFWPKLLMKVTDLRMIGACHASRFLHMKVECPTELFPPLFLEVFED
Conditions: reference
Procedure: using the U2-OS based CALUX cytotox bioassay. The cytotoxicity of each test chemical was assessed using the U2-OS based cytotoxicity CALUX bioassay. Concentrations causing >20% reduction of luminescence were considered cytotoxic.
cytotoxicity (relative induction in the cytotoxicity CALUX bioassay > 80%) were used for final
evaluation of analysis results.
induction in the cytotox CALUX bioassay > 80%) were used for final evaluation of analysis results.
All analysis results were expressed in molar (M) final in well.
For determination of the (anti-)ERα, (anti-)AR and (anti-)TRβ CALUX activities, CALUX cells were
seeded in assay medium. Following exposure of the CALUX cells to serial dilutions of the
compounds in triplicate for 24 h, the induction of luciferase production was quantified by measuring
luminescence following addition of the substrate luciferin. For antagonist assays, a fixed
concentration of assay agonist was present in each well, to generate a basal signal. On each plate, a
complete calibration curve for each respective bioassay was also analysed using the relevant reference
compounds. For the analyses in the presence of rat liver S9, 0.03% (v/v) of PB/BNF induced rat liver
S9 mix (including NADPH and an NADPH-regenerating system) was added to the cells directly after
addition of the compounds, which remained there for the duration of the exposure period (24 h) (van
Relative light units (RLUs) of the CALUX assays were analysed as follows. For agonist assays,
background values (exposure to DMSO only) were subtracted, and the maximum activity of the
assay’s reference compound was set to 100%. For antagonist assays, the basal signal (exposure to fixed concentration of agonist only) was set to 100%. Activity of the samples was scaled accordingly,
resulting in expression of the data as “percentage of maximum reference response”. Graphs were
generated using the statistical software package GraphPad Prism V5.03. Using these graphs, lowest
effect concentrations (LOECs) and PC50 concentrations were determined; LOEC is defined as the […]

CC1=C[C@H]2O[C@@H]3[C@H](O)C[C@](C)([C@@]2(CO)[C@H](O)C1=O)[C@]31CO1 [Deoxynivalenol, reference compound]
Anti-TRß antithyroid LOEC, reference compound: −6.9 Log M
